Measured values reported in US9999222B2, “Herbicidal combination comprising azines” (BASF SE, priority 2014, dated 2018).
Read-outs that look alike come from different tables or passages of the source.

Legend:
Test in all cases: Greenhouse test, pre-emergence treatment
LOLMU = format: in vivo, Lolium multiflorum; conditions: Lolium multiflorum, pre-emergence, 480 h, LOLMU, pre-emergence, individual, use rate 6.25 g ai/ha; read-out: observed % activity 20 DAT
Procedure, shortened: (§1)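 Damage was rated on a 0-100 scale, with 100 meaning no emergence or full destruction of aerial parts. Observed combination effects were set against the additive Colby expectation E=X+Y−(X·Y/100). Spray liquor was water-based, from 10% emulsion concentrates, applied pre-emergence right after sowing in loamy sand (about 3.0% humus). Plants were held at 10-25 °C or 20-35 °C for 2 to 4 weeks.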

ALOMY = format: in vivo, Alopecurus myosuroides; conditions: Alopecurus myosuroides, pre-emergence, 480 h, ALOMY, pre-emergence, read-out: observed % activity 20 DAT
Procedure, shortened: as §1

COMBE = format: in vivo, Commelina benghalensis; conditions: Commelina benghalensis, pre-emergence, 480 h
Procedure, shortened: as §1

GERPU = format: in vivo, Geranium pusillum; conditions: Geranium pusillum, pre-emergence, 480 h, 20 DAT, read-out: observed % activity
Procedure, shortened: as §1

CENCY = format: in vivo; conditions: 480 h, read-out: observed % activity 20 DAT
BRADC = format: in vivo, Brachiaria decumbens; conditions: Urochloa decumbens, pre-emergence, 480 h, pre-emergence, 36 g ai/ha; read-out: observed % activity 20 DAT
Procedure, shortened: as §1

ECHCG = format: in vivo, Echinocloa crus-galli; conditions: Echinochloa crus-galli, 480 h, ECHCG, use rate 3.125 g ai/ha, 20 DAT, read-out: observed % activity 20 DAT
Procedure, shortened: as §1

ABUTH = format: in vivo, Abutilon theophrasti; conditions: Abutilon theophrasti, 480 h
Procedure, shortened: as §1

GALAP = format: in vivo, Galium aparine; conditions: Galium aparine, pre-emergence, 480 h, pre-emergence, read-out: observed % activity 20 DAT
Procedure, shortened: as §1

EPHHL = format: in vivo, Euphorbia heterophylla; conditions: Euphorbia heterophylla, pre-emergence, 480 h, 20 DAT, read-out: observed % activity
Procedure, shortened: as §1

SETFA = format: in vivo, Setaria faberi; conditions: Setaria faberi, 480 h, SETFA, individual, read-out: observed % activity 20 DAT
Procedure, shortened: as §1

KCHSC = format: in vivo, Kochia scoparia
Procedure, shortened: as §1

POLCO = format: in vivo, Polygonum convolvulus; conditions: Fallopia convolvulus, pre-emergence, 480 h; for inhibition at 6.25 g/ha: use rate 6.25 g ai/ha
Procedure, shortened: as §1

[1] = 5 g ai/ha, 20 DAT, read-out: observed % activity
[2] = 10 g ai/ha, 20 DAT, read-out: observed % activity
[3] = 10 g ai/ha, read-out: observed % activity 20 DAT

CC(C)N(C)S(=O)(=O)NC(=O)c1cc(-n2c(=O)cc(C(F)(F)F)n(C)c2=O)c(F)cc1Cl [Saflufenacil, saflufenacil]
inhibition at 6.25 g/ha (LOLMU): 0% | inhibition at 6.25 g/ha (ALOMY; individual, use rate 6.25 g ai/ha): 0% | inhibition at 12.5 g/ha (ALOMY; individual, use rate 12.5 g ai/ha): 0% | inhibition at 3.125 g/ha (ALOMY; use rate 3.125 g ai/ha, 20 DAT): 0% | inhibition at 5 g/ha (COMBE; [1]): 65% | inhibition at 10 g/ha (COMBE; [2]): 98% | inhibition at 5 g/ha (COMBE; COMBE, individual, use rate 5 g ai/ha, read-out: observed % activity 20 DAT): 0% | inhibition at 10 g/ha (COMBE; COMBE, individual, use rate 10 g ai/ha, read-out: observed % activity 20 DAT): 15% | inhibition at 5 g/ha (COMBE; 5 g ai/ha, read-out: observed % activity 20 DAT): 0% | inhibition at 10 g/ha (COMBE; [3]): 15% | inhibition at 5 g/ha (GERPU; 5 g ai/ha): 25% | inhibition at 10 g/ha (GERPU; 10 g ai/ha): 25% | inhibition at 5 g/ha (CENCY; 5 g ai/ha): 20% | inhibition at 10 g/ha (CENCY; 10 g ai/ha): 30% | inhibition at 36 g/ha (BRADC): 90% | inhibition at 3.125 g/ha (ECHCG): 0% | inhibition at 10 g/ha (ABUTH; [2]): 90% | inhibition at 10 g/ha (ABUTH; [3]): 25% | inhibition at 10 g/ha (ABUTH; ABUTH, individual, use rate 10 g ai/ha, read-out: observed % activity 20 DAT): 25% | inhibition at 5 g/ha (GALAP; GALAP, individual, use rate 5 g ai/ha): 25% | inhibition at 10 g/ha (GALAP; GALAP, individual, use rate 10 g ai/ha): 50% | inhibition at 5 g/ha (GALAP; 5 g ai/ha): 25% | inhibition at 10 g/ha (GALAP; 10 g ai/ha): 50% | inhibition at 5 g/ha (EPHHL; 5 g ai/ha): 80% | inhibition at 10 g/ha (EPHHL; 10 g ai/ha): 95% | inhibition at 6.25 g/ha (SETFA; use rate 6.25 g ai/ha): 0% | inhibition at 12.5 g/ha (SETFA; use rate 12.5 g ai/ha): 0% | observed % activity (KCHSC; 5 g ai/ha, 20 DAT): 85% | inhibition at 5 g/ha (KCHSC; Bassia scoparia, pre-emergence, 480 h, 5 g ai/ha, 20 DAT, read-out: observed % activity): 70% | inhibition at 5 g/ha (KCHSC; Bassia scoparia, pre-emergence, 480 h, KCHSC, pre-emergence, individual, use rate 5 g ai/ha, read-out: observed % activity 20 DAT): 70% | inhibition at 6.25 g/ha (KCHSC; Bassia scoparia, pre-emergence, 480 h, KCHSC, pre-emergence, individual, use rate 6.25 g ai/ha, read-out: observed % activity 20 DAT): 30% | inhibition at 10 g/ha (KCHSC; Bassia scoparia, pre-emergence, 480 h, KCHSC, pre-emergence, individual, use rate 10 g ai/ha, read-out: observed % activity 20 DAT): 65% | inhibition at 12.5 g/ha (KCHSC; Bassia scoparia, pre-emergence, 480 h, KCHSC, pre-emergence, individual, use rate 12.5 g ai/ha, read-out: observed % activity 20 DAT): 70% | inhibition at 5 g/ha (KCHSC; Bassia scoparia, pre-emergence, 480 h, pre-emergence, 5 g ai/ha, read-out: observed % activity 20 DAT): 70% | inhibition at 10 g/ha (KCHSC; Bassia scoparia, pre-emergence, 480 h, pre-emergence, 10 g ai/ha, read-out: observed % activity 20 DAT): 65% | inhibition at 5 g/ha (POLCO; [1]): 60% | inhibition at 10 g/ha (POLCO; [2]): 65% | inhibition at 6.25 g/ha (POLCO; POLCO, individual, read-out: observed % activity 20 DAT): 70% | inhibition at 10 g/ha (POLCO; POLCO, individual, use rate 10 g ai/ha, read-out: observed % activity 20 DAT): 25% | inhibition at 12.5 g/ha (POLCO; POLCO, individual, use rate 12.5 g ai/ha, read-out: observed % activity 20 DAT): 85% | inhibition at 10 g/ha (POLCO; [3]): 25% | inhibition at 6.25 g/ha (POLCO; POLCO, 20 DAT, read-out: observed % activity 20 DAT): 70%
